Data as given in US20230151371A1, “POLYPEPTIDES HAVING EPOXY GROUP-REMOVING CATALYTIC ACTIVITY, NUCLEIC ACIDS ENCODING THE POLYPEPTIDES AND USE THEREOF” (priority 2020, published 2023).
Read-outs that look alike come from different tables or passages of the source.

Tests used:
[1] = test system: human embryonic kidney cell 293-derived line (293T)
[2] = test system: normal human esophageal epithelial cells (HEECs)
[3] = test system: pancreatic cancer cell line (PATU8988)

Measured: cell viability (CCK-8, OD450)

15-acetyl-deoxynivalenol [15-ADON]
decreased sharply: [1]; 293T, 48 h treatment | [2]; HEEC, 48 h treatment | [3]; PATU8988, 48 h treatment

HT-2 toxin
decreased sharply: [1] | [2] | [3]

deoxynivalenol [DON]
decreased sharply: [1]; 293T, 48 h treatment | [2]; HEEC, 48 h treatment | [3]; PATU8988, 48 h treatment

fusarenon-X [FUS-X]
decreased sharply: [1] | [2]; HEEC, 48 h treatment | [3]

3-acetyl-deoxynivalenol [3-ADON]
decreased sharply: [1]; 293T, 48 h treatment | [2]; HEEC, 48 h treatment | [3]; PATU8988, 48 h treatment
